# Test system: HIV-1
# Experiment: Inhibition of HIV-1 production (p24 antigen) in infected peripheral blood mononuclear cells (PBMCs)
# Assay type: cell-based, HIV-1 (AdaM) in PBMCs of healthy donors
# Conditions: Human immunodeficiency virus 1, PBMC; p24 production in HIV infected PBMCs; dose response curves
# Protocol: Within this framework, the peripheral blood mononuclear cells (PBMCs) of healthy donors are isolated by centrifugation on a FICOLL gradient. The cells are then cultivated to a density of 2.5×10^6 cells/ml with RPMI medium supplemented with 1% inactivated human AB serum, then incubated at 37° C., 5% CO2 for an additional hour. The peripheral blood mononuclear cells are then recovered and cultivated for two days in RPMI medium supplemented with 10% fetal calf serum.
# A standard experiment using 96 plates to test 30 molecules in triplicates including positive and negative controls, is performed as follows:
# 50 10^6 Ficoll purified PBMCs (10% DMSO 90% FCS) are washed with RPMI 10% FCS and resuspended in 25 ml of RPMI 10% FCS, glutamax containing 1000 U/ml of IL2 and 5 μg/ml PHA. The cells are then incubated for 3 days at 37° C. before to be washed with 50 ml PBS then with 50 ml RPMI 10% FCS. The cells are resuspended in 100 μl of RPMI 10% FCS containing 100 U/ml IL2 and seeded in 96 wells (1.5 10^5 cells/well). Viral infection is performed with 1 ng of AdaM/well. 100 μl of tested molecules at concentration of 10 μM are added to each well. Virus production is determined by p24 antigen immunosorbent assays after 3 and 6 days of infection (Kit Innogenetics). Typically PBMCs are prepared from several healthy donors (around 11 different donors). Dose response curves were then established with selected compounds to determine IC50.
row,Compound,IC50
1,"Cc1ccnc(Nc2ccc3cccc(Cl)c3n2)c1 [Compound 6, (8-Chloro-quinolin-2-yl)-(4-methyl-pyridin-2-yl)-amine]",100 pM
2,"Fc1ccc(Nc2ccc3cccc(Cl)c3n2)nc1 [Compound 43, 8-chloro-N-(5-fluoropyridin-2-yl)quinolin-2-amine]",100 pM
3,"COc1ccc(Nc2ccc3cccc(Cl)c3n2)cc1 [Compound 77, 8-chloro-N-(4-methoxyphenyl)quinolin-2-amine]",50 pM
4,"Cc1cc2ccccc2nc1Nc1ccc(OC(F)(F)F)cc1 [Compound 80, 3-methyl-N-[4-(trifluoromethoxy)phenyl]quinolin-2-amine]",1000 pM
5,"FC(F)(F)Oc1ccc(Nc2ccc3cccc(Cl)c3n2)cc1 [Compound 90, 8-chloro-N-[4-(trifluoromethoxy)phenyl]quinolin-2-amine]",100 pM
6,"Clc1cccc2ccc(Nc3cnccn3)nc12 [Compound 112, 8-chloro-N-(pyrazin-2-yl)quinolin-2-amine]",100 pM

# Same assay, conditions: tested molecules at 10 μM; p24 after 3 and 6 days of infection; number of donors with inhibition out of donors tested
row,Compound,Inhibition of p24 production in HIV infected PBMCs from different donors
1,"Fc1ccc(Nc2ccc3cccc(Cl)c3n2)nc1 [Compound 43, 8-chloro-N-(5-fluoropyridin-2-yl)quinolin-2-amine]",8 out of 10 donnors
2,"Cc1cccc(Nc2nc3ccccc3cc2C)n1 [Compound 46, 3-methyl-N-(6-methylpyridin-2-yl)quinolin-2-amine]",4 out of 4 donnors
3,"CCc1cccc(Nc2ccc3cccc(Cl)c3n2)n1 [Compound 50, 8-chloro-N-(6-ethylpyridin-2-yl)quinolin-2-amine]",4 out of 4 donnors
4,"Cc1ccnc(Nc2ccc3c([N+](=O)[O-])cccc3n2)c1 [Compound 64, N-(4-methylpyridin-2-yl)-5-nitroquinolin-2-amine]",5 out of 5 donnors
5,"FC(F)(F)c1ccnc(Nc2ccc3cccc(Cl)c3n2)c1 [Compound 68, 8-chloro-N-[4-(trifluoromethyl)pyridin-2-yl]quinolin-2-amine]",4 out of 4 donnors
6,"Oc1cccnc1Nc1ccc2cccc(Cl)c2n1 [Compound 69, 2-[(8-chloroquinolin-2-yl)amino]pyridin-3-ol]",4 out of 4 donnors
7,"FC(F)(F)c1cccc(Nc2ccc3cccc(Cl)c3n2)n1 [Compound 70, 8-chloro-N-[6-(trifluoromethyl)pyridin-2-yl]quinolin-2-amine]",4 out of 4 donnors
8,"Fc1ccc(Nc2ccc3cc(Cl)ccc3n2)nc1 [Compound 71, 6-chloro-N-(5-fluoropyridin-2-yl)quinolin-2-amine]",4 out of 4 donnors
9,"CCc1cccc(Nc2nc3ccccc3cc2C)n1 [Compound 72, N-(6-ethylpyridin-2-yl)-3-methylquinolin-2-amine]",4 out of 4 donnors
10,"Cc1cc2ccccc2nc1Nc1ccc(F)cn1 [Compound 73, N-(5-fluoropyridin-2-yl)-3-methylquinolin-2-amine]",4 out of 4 donnors
11,"Cc1cc2ccccc2nc1Nc1ccc(C(F)(F)F)cn1 [Compound 74, 3-methyl-N-[5-(trifluoromethyl)pyridin-2-yl]quinolin-2-amine]",4 out of 4 donnors
12,"CN(C)c1ccc(Nc2ccc3cccc(Cl)c3n2)cc1 [Compound 75, 4-N-(8-chloroquinolin-2-yl)-1-N,1-N-dimethylbenzene-1,4-diamine]",6 out of 7 donnors
13,"COc1ccc(Nc2ccc3cccc(Cl)c3n2)cc1 [Compound 77, 8-chloro-N-(4-methoxyphenyl)quinolin-2-amine]",11 out of 13 donnors
14,"Cc1cc(Nc2ccc(OC(F)(F)F)cc2)nc2ccccc12 [Compound 78, 4-methyl-N-[4-(trifluoromethoxy)phenyl]quinolin-2-amine]",7 out of 8 donnors
15,"COc1ccc(Nc2nc3ccccc3cc2C)cc1 [Compound 79, N-(4-methoxyphenyl)-3-methylquinolin-2-amine]",7 out of 8 donnors
16,"Cc1cc2ccccc2nc1Nc1ccc(OC(F)(F)F)cc1 [Compound 80, 3-methyl-N-[4-(trifluoromethoxy)phenyl]quinolin-2-amine]",7 out of 8 donnors
17,"Cc1cc2ccccc2nc1Nc1ccc(N(C)C)cc1 [Compound 81, 1-N,1-N-dimethyl-4-N-(3-methylquinolin-2-yl)benzene-1,4-diamine]",4 out of 4 donnors
18,"FC(F)(F)Oc1cccc(Nc2ccc3cccc(Cl)c3n2)c1 [Compound 87, 8-chloro-N-[3-(trifluoromethoxy)phenyl]quinolin-2-amine]",4 out of 4 donnors
19,"Fc1cccc(Nc2ccc3cccc(Cl)c3n2)c1 [Compound 88, 8-chloro-N-(3-fluorophenyl)quinolin-2-amine]",4 out of 4 donnors
20,"FC(F)(F)Oc1ccc(Nc2ccc3cccc(Cl)c3n2)cc1 [Compound 90, 8-chloro-N-[4-(trifluoromethoxy)phenyl]quinolin-2-amine]",8 out of 10 donnors
21,"Cc1cc2ccccc2nc1Nc1cccc(OC(F)(F)F)c1 [Compound 92, 3-methyl-N-[3-(trifluoromethoxy)phenyl]quinolin-2-amine]",3 out of 5 donnors
22,"FC(F)(F)Oc1ccc(Nc2ccc3cc(Cl)ccc3n2)cc1 [Compound 96, 6-chloro-N-(4-(trifluoromethoxy)phenyl)quinolin-2-amine]",5 out of 6 donnors
23,"FC(F)(F)Oc1ccc(Nc2ccc3cccc(Cl)c3n2)cc1Cl [Compound 104, 8-chloro-N-[3-chloro-4-(trifluoromethoxy)phenyl]quinolin-2-amine]",4 out of 4 donnors
24,"Clc1cccc2ccc(Nc3cnccn3)nc12 [Compound 112, 8-chloro-N-(pyrazin-2-yl)quinolin-2-amine]",12 out of 13 donnors
25,"Cc1ccnc(Nc2nc3ccccc3nc2C(F)(F)F)c1 [Compound 139, N-(4-methylpyridin-2-yl)-3-(trifluoromethyl)quinoxalin-2-amine]",4 out of 4 donnors
26,"Cc1c(Cl)cnc(Nc2cnc3ccccc3n2)c1Cl [Compound 140, N-(3,5-dichloro-4-methylpyridin-2-yl)quinoxalin-2-amine]",4 out of 4 donnors
27,"Cc1ccnc(Nc2cnc3ccccc3n2)c1[N+](=O)[O-] [Compound 141, N-(4-methyl-3-nitropyridin-2-yl)quinoxalin-2-amine]",4 out of 4 donnors

# Reference: patent US10975063B2, “Compound, and production method thereof, and methods of treatment using the compound” (ABIVAX, priority 2009, dated 2021)
